Each molecule was assayed on MCH receptors (assay: MCH receptor activity class (method not given)). Settings: MCH receptor; class by percent of control at 10^-7 M or IC50.

Structure (SMILES) | class
CN(C)c1cc(N[C@H]2CC[C@@H](NC(=O)C3=Cc4cc(Cl)ccc4OC3)CC2)nc2ccccc12 [compound 143] | 3 (Class 3 The value of percent of control at 10^−7 M was more than 60% or the value of IC50 was more than 200 nM.)
CN(C)c1cc(N[C@H]2CC[C@@H](NC(=O)c3ccc(OC(F)(F)F)c(Cl)c3)CC2)nc2ccccc12 [compound 144] | 3 (Class 3 The value of percent of control at 10^−7 M was more than 60% or the value of IC50 was more than 200 nM.)
Cc1cc(=O)oc2c(OCC(=O)N[C@H]3CC[C@@H](Nc4cc(N(C)C)c5ccccc5n4)CC3)cccc12 [compound 145] | 3 (Class 3 The value of percent of control at 10^−7 M was more than 60% or the value of IC50 was more than 200 nM.)
CN(C)c1cc(N[C@H]2CC[C@@H](NC(=O)c3csc(-c4cccs4)n3)CC2)nc2ccccc12 [compound 146, N-(cis-4-{[4-(dimethylamino)quinolin-2-yl]amino}cyclohexyl)-2-(2-thienyl)-1,3-thiazole-4-carboxamide] | 1 (Class 1: The value of percent of control at 10^−7 M was less than 40% or the value of IC50 was less than 50 nM.)
COc1cccc(C(=O)NC[C@H]2CC[C@@H](Nc3cc(N(C)C)c4ccccc4n3)CC2)c1 [compound 147, N-[(cis-4-{[4-(dimethylamino)quinolin-2-yl]amino}cyclohexyl)methyl]-3-methoxybenzamide] | 3 (Class 3 The value of percent of control at 10^−7 M was more than 60% or the value of IC50 was more than 200 nM.)
CN(C)c1cc(N[C@H]2CC[C@@H](CNC(=O)c3cccc(Br)c3)CC2)nc2ccccc12 [compound 148] | 3 (Class 3 The value of percent of control at 10^−7 M was more than 60% or the value of IC50 was more than 200 nM.)
CN(C)c1cc(N[C@H]2CC[C@@H](CNC(=O)c3ccc(Br)cc3)CC2)nc2ccccc12 [compound 149] | 3 (Class 3 The value of percent of control at 10^−7 M was more than 60% or the value of IC50 was more than 200 nM.)
CN(C)c1cc(N[C@H]2CC[C@@H](CNC(=O)c3ccc4nonc4c3)CC2)nc2ccccc12 [compound 150, N-[(cis-4-{[4-(dimethylamino)quinolin-2-yl]amino}cyclohexyl)methyl]-2,1,3-benzoxadiazole-5-carboxamide] | 3 (Class 3 The value of percent of control at 10^−7 M was more than 60% or the value of IC50 was more than 200 nM.)
CN(C)c1cc(N[C@H]2CC[C@@H](CNC(=O)c3cccc(Cl)c3)CC2)nc2ccccc12 [compound 151] | 3 (Class 3 The value of percent of control at 10^−7 M was more than 60% or the value of IC50 was more than 200 nM.)
CN(C)c1cc(N[C@H]2CC[C@@H](CNC(=O)c3ccc(Cl)cc3)CC2)nc2ccccc12 [compound 152] | 3 (Class 3 The value of percent of control at 10^−7 M was more than 60% or the value of IC50 was more than 200 nM.)
CN(C)c1cc(N[C@H]2CC[C@@H](CNC(=O)/C=C/c3ccccc3)CC2)nc2ccccc12 [compound 153] | 3 (Class 3 The value of percent of control at 10^−7 M was more than 60% or the value of IC50 was more than 200 nM.)
CN(C)c1cc(N[C@H]2CC[C@@H](CNC(=O)c3ccc(Cl)c([N+](=O)[O-])c3)CC2)nc2ccccc12 [compound 154] | 3 (Class 3 The value of percent of control at 10^−7 M was more than 60% or the value of IC50 was more than 200 nM.)
CN(C)c1cc(N[C@H]2CC[C@@H](CNC(=O)Cc3ccc(Cl)cc3)CC2)nc2ccccc12 [compound 155] | 3 (Class 3 The value of percent of control at 10^−7 M was more than 60% or the value of IC50 was more than 200 nM.)
CN(C)c1cc(N[C@H]2CC[C@@H](CNC(=O)c3cccc(C#N)c3)CC2)nc2ccccc12 [compound 156] | 3 (Class 3 The value of percent of control at 10^−7 M was more than 60% or the value of IC50 was more than 200 nM.)
CN(C)c1cc(N[C@H]2CC[C@@H](CNC(=O)c3cc(Cl)cc(Cl)c3)CC2)nc2ccccc12 [compound 157] | 3 (Class 3 The value of percent of control at 10^−7 M was more than 60% or the value of IC50 was more than 200 nM.)
CN(C)c1cc(N[C@H]2CC[C@@H](CNC(=O)c3ccc(Cl)c(Cl)c3)CC2)nc2ccccc12 [compound 158] | 3 (Class 3 The value of percent of control at 10^−7 M was more than 60% or the value of IC50 was more than 200 nM.)
CN(C)c1cc(N[C@H]2CC[C@@H](CNC(=O)C(c3ccccc3)c3ccccc3)CC2)nc2ccccc12 [compound 159, N-[(cis-4-{[4-(dimethylamino)quinolin-2-yl]amino}cyclohexyl)methyl]-2,2-diphenylacetamide] | 2 (Class 2: The value of percent of control at 10^−7 M was from 40% to 60% or the value of IC′50 was from 50 nM to 200 nM.)
CN(C)c1cc(N[C@H]2CC[C@@H](CNC(=O)c3ccc(F)c(F)c3)CC2)nc2ccccc12 [compound 160, N-[(cis-4-{[4-(dimethylamino)quinolin-2-yl]amino}cyclohexyl)methyl]-3,4-difluorobenzamide] | 3 (Class 3 The value of percent of control at 10^−7 M was more than 60% or the value of IC50 was more than 200 nM.)

Structure (SMILES) | class
CN(C)c1cc(N[C@H]2CC[C@@H](CNC(=O)c3cc(F)cc(F)c3)CC2)nc2ccccc12 [compound 161, N-[(cis-4-{[4-(dimethylamino)quinolin-2-yl]amino}cyclohexyl)methyl]-3,5-difluorobenzamide] | 3 (Class 3 The value of percent of control at 10^−7 M was more than 60% or the value of IC50 was more than 200 nM.)
COc1ccc(OC)c(CC(=O)NC[C@H]2CC[C@@H](Nc3cc(N(C)C)c4ccccc4n3)CC2)c1 [compound 162] | 3 (Class 3 The value of percent of control at 10^−7 M was more than 60% or the value of IC50 was more than 200 nM.)
CCSc1ncccc1C(=O)NC[C@H]1CC[C@@H](Nc2cc(N(C)C)c3ccccc3n2)CC1 [compound 163] | 3 (Class 3 The value of percent of control at 10^−7 M was more than 60% or the value of IC50 was more than 200 nM.)
CN(C)c1cc(N[C@H]2CC[C@@H](CNC(=O)c3ccc(F)cc3)CC2)nc2ccccc12 [compound 164, N-[(cis-4-{[4-(dimethylamino)quinolin-2-yl]amino}cyclohexyl)methyl]-4-fluorobenzamide] | 3 (Class 3 The value of percent of control at 10^−7 M was more than 60% or the value of IC50 was more than 200 nM.)
CN(C)c1cc(N[C@H]2CC[C@@H](CNC(=O)c3cc(F)cc(C(F)(F)F)c3)CC2)nc2ccccc12 [compound 165] | 3 (Class 3 The value of percent of control at 10^−7 M was more than 60% or the value of IC50 was more than 200 nM.)
CN(C)c1cc(N[C@H]2CC[C@@H](CNC(=O)c3cc(F)c(Cl)cc3Cl)CC2)nc2ccccc12 [compound 166] | 3 (Class 3 The value of percent of control at 10^−7 M was more than 60% or the value of IC50 was more than 200 nM.)
CCCCCC(=O)NC[C@H]1CC[C@@H](Nc2cc(N(C)C)c3ccccc3n2)CC1 [compound 167] | 3 (Class 3 The value of percent of control at 10^−7 M was more than 60% or the value of IC50 was more than 200 nM.)
CN(C)c1cc(N[C@H]2CC[C@@H](CNC(=O)c3ccc(I)cc3)CC2)nc2ccccc12 [compound 168] | 3 (Class 3 The value of percent of control at 10^−7 M was more than 60% or the value of IC50 was more than 200 nM.)
CSc1ncccc1C(=O)NC[C@H]1CC[C@@H](Nc2cc(N(C)C)c3ccccc3n2)CC1 [compound 169] | 3 (Class 3 The value of percent of control at 10^−7 M was more than 60% or the value of IC50 was more than 200 nM.)
Cc1ccc(C(=O)NC[C@H]2CC[C@@H](Nc3cc(N(C)C)c4ccccc4n3)CC2)cc1[N+](=O)[O-] [compound 170, N-[(cis-4-{[4-(dimethylamino)quinolin-2-yl]amino}cyclohexyl)methyl]-4-methyl-3-nitrobenzamide] | 3 (Class 3 The value of percent of control at 10^−7 M was more than 60% or the value of IC50 was more than 200 nM.)
CN(C)c1cc(N[C@H]2CC[C@@H](CNC(=O)c3cccc([N+](=O)[O-])c3)CC2)nc2ccccc12 [compound 171, N-[(cis-4-{[4-(dimethylamino)quinolin-2-yl]amino}cyclohexyl)methyl]-3-nitrobenzamide] | 3 (Class 3 The value of percent of control at 10^−7 M was more than 60% or the value of IC50 was more than 200 nM.)
CN(C)c1cc(N[C@H]2CC[C@@H](CNC(=O)Cc3ccccc3)CC2)nc2ccccc12 [compound 172] | 3 (Class 3 The value of percent of control at 10^−7 M was more than 60% or the value of IC50 was more than 200 nM.)
CN(C)c1cc(N[C@H]2CC[C@@H](CNC(=O)C3C[C@H]3c3ccccc3)CC2)nc2ccccc12 (stereo partly drawn) [compound 173] | 3 (Class 3 The value of percent of control at 10^−7 M was more than 60% or the value of IC50 was more than 200 nM.)
CN(C)c1cc(N[C@H]2CC[C@@H](CNC(=O)c3ccc4c(c3)OCO4)CC2)nc2ccccc12 [compound 174] | 3 (Class 3 The value of percent of control at 10^−7 M was more than 60% or the value of IC50 was more than 200 nM.)
Cc1cccc(C(=O)NC[C@H]2CC[C@@H](Nc3cc(N(C)C)c4ccccc4n3)CC2)c1 [compound 177, N-[(cis-4-{[4-(dimethylamino)quinolin-2-yl]amino}cyclohexyl)methyl]-3-methylbenzamide] | 3 (Class 3 The value of percent of control at 10^−7 M was more than 60% or the value of IC50 was more than 200 nM.)
Cc1ccc(C(=O)NC[C@H]2CC[C@@H](Nc3cc(N(C)C)c4ccccc4n3)CC2)cc1 [compound 178] | 3 (Class 3 The value of percent of control at 10^−7 M was more than 60% or the value of IC50 was more than 200 nM.)
CN(C)c1cc(N[C@H]2CC[C@@H](CNC(=O)c3cccs3)CC2)nc2ccccc12 [compound 179] | 3 (Class 3 The value of percent of control at 10^−7 M was more than 60% or the value of IC50 was more than 200 nM.)
CN(C)c1cc(N[C@H]2CC[C@@H](CNC(=O)Cc3cccs3)CC2)nc2ccccc12 [compound 180] | 3 (Class 3 The value of percent of control at 10^−7 M was more than 60% or the value of IC50 was more than 200 nM.)

— patent US20050197350A1, “Novel quinoline, tetrahydroquinazoline, and pyrimidine derivatives and methods of treatment related to the use thereof” (TAISHO PHARMACEUTICAL CO., LTD., priority 2003, published 2005)
